Target: IGP1 (IGP1/CORK1) ectodomain (Arabidopsis thaliana, UniProt F4I3K3)
Test: ITC
Format: binding
Conditions: purified ectodomain; ligand in LRR domain pocket, three subsites; N=1

OC[C@H]1O[C@@H](O[C@H]2[C@H](O)[C@@H](O)[C@H](O[C@H]3[C@H](O)[C@@H](O)C(O)O[C@@H]3CO)O[C@@H]2CO)[C@H](O)[C@@H](O)[C@@H]1O (stereo partly shown) [CEL3, cellotriose]
Kd: ~1 µM

Source: doi:10.1101/2025.09.28.679030v1 (biorxiv, 2025)
